Test results taken from PMC9088798, “An Approach to Derive Functional Peptide Inhibitors of Transcription Factor Activity” (JACS Au, 2022).

Tests used:
[1] = test system: cJun bZIP / TRE sites in TRE-mDHFR gene; assay: TBS liquid culture growth competition HingeW vs A-FosW; type: cell-based, human cJun, expressed in E. coli; conditions: equal numbers of cells with A-FosW or HingeW, selective M9 media, after three passages, DNA sequencing
Description: During the TBS library screening process, E. coli were transformed with the pooled DNA plasmid library such that each cell expressed a given member. Cells were plated onto M9 selective media and incubated until colonies expressing TBS active library members had formed. These colonies were pooled, and repeated liquid culture passages were undertaken under selective conditions to compete for library members against each other, enriching for the most TBS active sequences. At each stage of the assay, DNA sequencing was used to monitor the presence of TBS active sequences in the culture and inform on which residues were being selected at each position until one discrete DNA sequence was detected in the culture, referred to as HingeW (Figure 4). The residues selected in the winning HingeW peptide were universally found to be either acidic (D/E) or hydrophobic (V). Six of nine residues selected deviated from the parental A-FosW sequence with both V (E-to-V at e4 and c4, Q-to-V at f4) and E (L-to-E at a4, Q-to-E at e5, A-to-E at f5) newly selected in three positions. […]
increased to the optimum 4 µM in subsequent passages. […] This allows the occurrence of library members to be monitored as winner sequences are selected for. […]

cJun bZIP = assay: CD thermal denaturation of heterodimer with cJun bZIP; type: binding, human
Description: Figure 5 TBS winner peptide HingeW binds cJun preferentially over A-FosW. CD spectra (20 °C) show the binding of cJun to either (A) HingeW or (B) A-FosW. […] However, the effect is larger for HingeW, indicating a greater increase in peptide helicity. Similarly, the thermal denaturation of cJun bound to either (C) HingeW or (D) A-FosW is right-shifted from the average of the component peptide denaturation profiles. […] CD dimer exchange spectra show (E) an increase in helicity when HingeW is mixed with the A-FosW/cJun heterodimer as the HingeW exchanges with the A-FosW due to the binding preference of cJun for HingeW and (F) no shift from the average is observed when A-FosW is mixed with the HingeW/cJun heterodimer, indicating no change in dimer populations. Arrows are shown to highlight the shift from the average at 190 and 222 nm. In all experiments, the total sample peptide concentration was fixed to 10 μM, using equimolar concentrations of each component peptide to remove concentration-dependent effects. […]
µM) alongside ampicillin, kanamycin and chloramphenicol to maintain the required plasmids, and IPTG (1 mM) to induce protein expression. The library transformants were […]
however a lower stringency is used initially before selection is increased in later steps.
Colonies from this first round of selection were pooled and serially grown in liquid culture at starting OD600 of 0.05 and grown at 37°C with shaking at 200 rpm until the OD600 […]
increased to the optimum 4 µM in subsequent passages. Bacteria containing the most effective functional antagonists were expected to produce higher levels of TRE-mDHFR which provides a growth advantage, and these will dominate the culture. At each passage step, a sample of the culture was plated on LB agar (supplemented with antibiotics to maintain plasmids) to select and sequence individual colonies, and a DNA pool was also sequenced. This allows the occurrence of library members to be monitored as winner sequences are selected for. […]

## LEQRAEELARENEELEKEAEELEQELDELQAEIEQLEERNYALRKEIEDLQKQLEKL [A-FosW, N-terminal AS and C-terminal GAP caps, 6xHis-tagged]
[1]
  outcome of direct competition in liquid culture: outcompeted
cJun bZIP; 222 nm thermal denaturation
  smaller initial transition of heterodimer with cJun (double transition): ~30 °C
cJun bZIP; 222 nm, 1-90 °C at 1 °C increments, total peptide 10 μM equimolar, pH 7.4, two-state model
  Tm of heterodimer with cJun: 69.9 °C
cJun bZIP; heterodimer Tm minus average of component peptide denaturation profiles, for HingeW an estimate because homodimer Tm undeterminable
  ΔTm from component average (heterodimer with cJun): 27.5 °C
